# From patent US20220323406A1, “METHODS AND COMPOSITIONS FOR DIFFERENTIATING STEM CELLS” (Massachusetts Institute of Technology, priority 2019, published 2022)
# Experiments:
# [1] = system: ENR+CD organoids; assay: Primary screen: ATP (CellTiter-Glo 3D, CTG) cell number/viability, 2.5-D 384-well ENR+CD organoids;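 note: compounds given at plating and again on day 3 over a 6-day differentiation from ENR+CV stem-cell-enriched precursors, ATP measured on day 6, plate median as control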
# [2] = system: ENR+CD organoids (ISC to Paneth cell differentiation); assay: Primary screen: CCh-stimulated lysozyme secretion LYZ.S, 2.5-D 384-well ENR+CD organoid differentiation; assay type: cell-based, mouse; conditions: primary screen
# Excerpt: (§1) High-throughput screening.
# [3] = system: ENR+CD organoids (ISC to Paneth cell differentiation); assay: Primary screen: basal (non-stimulated) lysozyme secretion LYZ.NS, 2.5-D 384-well ENR+CD organoid differentiation; assay type: cell-based, mouse
# Excerpt: as §1
# [4] = primary screen, dose 0.08 uM, FC relative to plate median
# [5] = primary screen, dose 0.08 uM, standard z score
# [6] = primary screen, dose 0.40 uM, FC relative to plate median
# [7] = primary screen, dose 0.40 uM, standard z score
# [8] = primary screen, dose 2.00 uM, FC relative to plate median
# [9] = primary screen, dose 2.00 uM, standard z score
# [10] = primary screen, dose 10.00 uM, FC relative to plate median
# [11] = primary screen, dose 10.00 uM, standard z score
# [12] = primary screen, standard z score, dose 0.08 uM
# [13] = primary screen, standard z score, dose 0.40 uM
# [14] = primary screen, standard z score, dose 2.00 uM
# [15] = primary screen, standard z score, dose 10.00 uM
SMILES,"Dose.FC.CTG (log2 fold change) ([1]; primary screen, dose 0.08 uM)","Z.CTG (standard z score) ([1]; primary screen, dose 0.08 uM)","Dose.FC.CTG (log2 fold change) ([1]; primary screen, dose 0.40 uM)","Z.CTG (standard z score) ([1]; primary screen, dose 0.40 uM)","Dose.FC.CTG (log2 fold change) ([1]; primary screen, dose 2.00 uM)","Z.CTG (standard z score) ([1]; primary screen, dose 2.00 uM)","Dose.FC.CTG (log2 fold change) ([1]; primary screen, dose 10.00 uM)","Z.CTG (standard z score) ([1]; primary screen, dose 10.00 uM)",Dose.FC.LYZ.S (log2 fold change) ([2]; dose 0.08 uM),Dose.FC.LYZ.S (log2 fold change) ([2]; dose 0.40 uM),Dose.FC.LYZ.S (log2 fold change) ([2]; dose 2.00 uM),Dose.FC.LYZ.S (log2 fold change) ([2]; dose 10.00 uM),"Dose.FC.LYZ.NS (log2 fold change) ([3]; primary screen, dose 0.08 uM)","Z.LYZ.NS (standard z score) ([3]; primary screen, dose 0.08 uM)","Dose.FC.LYZ.NS (log2 fold change) ([3]; primary screen, dose 0.40 uM)","Z.LYZ.NS (standard z score) ([3]; primary screen, dose 0.40 uM)","Dose.FC.LYZ.NS (log2 fold change) ([3]; primary screen, dose 2.00 uM)","Z.LYZ.NS (standard z score) ([3]; primary screen, dose 2.00 uM)","Dose.FC.LYZ.NS (log2 fold change) ([3]; primary screen, dose 10.00 uM)","Z.LYZ.NS (standard z score) ([3]; primary screen, dose 10.00 uM)",also measured
O=C(Nc1ccncc1)c1cc([N+](=O)[O-])ccc1Cl [T0070907],–,–,–,–,–,–,–,–,–,–,–,–,–,–,–,–,–,–,–,–,"Dose.FC.CTG [1, 4]: 0.112 log2 fold change; Z.CTG [1, 5]: 0.267; Dose.FC.CTG [1, 6]: 0.026 log2 fold change; Z.CTG [1, 7]: 0.062; Dose.FC.CTG [1, 8]: 0.050 log2 fold change; Z.CTG [1, 9]: 0.119; Dose.FC.CTG [1, 10]: −0.756 log2 fold change; Z.CTG [1, 11]: −1.806; Dose.FC.LYZ.S ([2]; dose 0.08 uM, FC relative to plate median): −0.005 log2 fold change; Dose.FC.LYZ.S ([2]; dose 0.40 uM, FC relative to plate median): −0.001 log2 fold change; Dose.FC.LYZ.S ([2]; dose 2.00 uM, FC relative to plate median): 0.081 log2 fold change; Dose.FC.LYZ.S ([2]; dose 10.00 uM, FC relative to plate median): −0.312 log2 fold change; Dose.FC.LYZ.NS [3, 4]: 0.010 log2 fold change; Z.LYZ.NS [3, 5]: 0.084; Dose.FC.LYZ.NS [3, 6]: −0.003 log2 fold change; Z.LYZ.NS [3, 7]: −0.029; Dose.FC.LYZ.NS [3, 8]: 0.043 log2 fold change; Z.LYZ.NS [3, 9]: 0.373; Dose.FC.LYZ.NS [3, 10]: −0.218 log2 fold change; Z.LYZ.NS [3, 11]: −1.897"
CS(=O)(=O)N1CCN(Cc2cc3nc(-c4cccc5[nH]ncc45)nc(N4CCOCC4)c3s2)CC1 [GDC-0941],–,–,–,–,–,–,–,–,–,–,–,–,–,–,–,–,–,–,–,–,"Dose.FC.CTG ([1]; primary screen, dose 0.08 uM): 0.283 log2 fold change; Dose.FC.CTG ([1]; primary screen, dose 0.40 uM): 0.022 log2 fold change; Dose.FC.CTG ([1]; primary screen, dose 2.00 uM): −0.197 log2 fold change; Dose.FC.CTG ([1]; primary screen, dose 10.00 uM): −1.223 log2 fold change; Z.CTG [1, 12]: 0.677; Z.CTG [1, 13]: 0.053; Z.CTG [1, 14]: −0.472; Z.CTG [1, 15]: −2.921; Dose.FC.LYZ.S ([2]; dose 0.08 uM): 0.018 log2 fold change; Dose.FC.LYZ.S ([2]; dose 0.40 uM): −0.076 log2 fold change; Dose.FC.LYZ.S ([2]; dose 2.00 uM): −0.248 log2 fold change; Dose.FC.LYZ.S ([2]; dose 10.00 uM): −0.257 log2 fold change; Dose.FC.LYZ.NS ([3]; primary screen, dose 0.08 uM): 0.008 log2 fold change; Dose.FC.LYZ.NS ([3]; primary screen, dose 0.40 uM): −0.013 log2 fold change; Dose.FC.LYZ.NS ([3]; primary screen, dose 2.00 uM): −0.128 log2 fold change; Dose.FC.LYZ.NS ([3]; primary screen, dose 10.00 uM): −0.156 log2 fold change; Z.LYZ.NS [3, 12]: 0.070; Z.LYZ.NS [3, 13]: −0.112; Z.LYZ.NS [3, 14]: −1.113; Z.LYZ.NS [3, 15]: −1.362"
Fc1cc(F)c2c(c1)[C@H]1C=CC[C@H]1C(c1cccnc1)N2 (mixture of isomers) [Golgicide A],0.167,0.398,0.227,0.541,0.339,0.810,−0.220,−0.526,0.146,0.202,0.076,−0.256,0.267,2.325,0.066,0.576,0.171,1.492,−0.161,−1.402,–
COC(=O)CCSCc1ccc(-c2onc(C)c2NC(=O)OC(C)c2ccccc2Cl)cc1 (stereo not shown) [Ki16198],−0.011,−0.026,−0.108,−0.258,−0.033,−0.078,0.022,0.052,0.027,0.031,−0.015,−0.037,0.005,0.044,−0.009,−0.076,0.060,0.519,−0.103,−0.899,–
O=C(Nc1ccccc1)c1cc([N+](=O)[O-])ccc1Cl [GW9662],0.115,0.274,0.041,0.098,0.212,0.508,0.133,0.318,0.036,0.080,0.093,0.020,0.035,0.305,0.098,0.852,0.046,0.400,0.030,0.264,–
